Reference: article PMC7468108 (Communications Biology, 2020)

Tests used:
Aβ42 = target: T1, Aβ42 (Homo sapiens, UniProt P05067); assay: ThT-binding assay, inhibition of Aβ42 aggregation; type: biochemical; settings: any molar ratio (5:1, 1:1, 1:5)
T1 construct: purchased rPeptide (USA)
Procedure: ThT is known to intercalate within the amyloid fibrils resulting in fluorescence emission proportionate to the amyloid growth.
(§1) The resulting thin films were dissolved in PBS (100 mM, pH 7.4) and sonicated for 5 min to get a stock concentration of 50 µM, which immediately diluted to required concentration for an experiment. Stock solutions of ThT (4 mM in PBS) and hybrid molecules (10 mM in PBS) were prepared. All the stock solutions were diluted according to the requirement.
The experiment was performed according to the previous report. […] […] Excitation and emission wavelengths were set at 440 nm and 485 nm, respectively.

hIAPP = target: T2, hIAPP (Homo sapiens, UniProt P10997); assay: ThT-binding assay, inhibition of hIAPP aggregation; type: biochemical; settings: molar ratios 5:1, 1:1, 1:5
T2 construct: hIAPP is a 37-amino acid neuroendocrine peptide hormone; purchased Peptide 2.0 (USA)
T2 sequence (P10997 34-70 limits assumed): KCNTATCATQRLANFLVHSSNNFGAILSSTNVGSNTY
Procedure: A similar inhibitory effect by the hybrid molecules was found toward hIAPP aggregation. […] Upon co-incubation of hIAPP with the hybrid molecules, a dose-response inhibition of hIAPP fibril formation was observed (Fig. 2d, e and Supplementary Fig. 3). […] Also, for IAPP, the marginally stronger inhibitory effect of WGalNAc was statistically significant (Supplementary Fig. 2b).
as §1
The experiment was performed according to the previous report. […] Kinetics fluorescence data were collected at 37 °C in triplicate using Infinite M200 microplate reader (Tecan, Switzerland), with measurements acquired at 15 min intervals. Excitation and emission wavelengths were set at 440 nm and 485 nm, respectively.

T1 sequence (P05067 672-713 limits assumed): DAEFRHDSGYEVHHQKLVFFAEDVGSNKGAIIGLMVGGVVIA

Row | SMILES | inhibition of Aβ42 fibril formation (ThT), in words (Aβ42) | inhibition of hIAPP fibril formation (ThT), in words (hIAPP)
1 | N[C@@H]1O[C@H](CO)[C@H](O)[C@H](O)[C@H]1O [galactosylamine, 1-amino-1-deoxy-β-D-galactose] | no inhibition effect | No inhibitory effect
2 | N[C@@H](Cc1c[nH]c2ccccc12)C(=O)O [tryptophan] | no inhibition effect | No inhibitory effect
